IC50 data for eleven molecules are collected here from patent US20260022142A1, “MACROCYCLIC IMMUNOMODULATORS” (Bristol-Myers Squibb Company, priority 2022, published 2026).

Usually IC50 stands for the concentration needed to halve the response being measured.

Bridge positions count the residues as written; N and C are the ends. Square brackets hold non-standard residues; d marks the D form. Peptide text beside a SMILES is read from it. * marks the point of attachment. Phe(4-CONH2) = NC(=O)c1ccc(C[C@H](N)C(=O)O)cc1; Phe(4-COOH) = N[C@@H](Cc1ccc(C(=O)O)cc1)C(=O)O; Bip = N[C@@H](Cc1ccc(-c2ccccc2)cc1)C(=O)O; NH(CH2)14COOH = O=C(O)CCCCCCCCCCCCCCN*; Phe(3-Me) = Cc1cccc(C[C@H](N)C(=O)O)c1; NH(CH2)12COOH = O=C(O)CCCCCCCCCCCCN*; Val(3-OH) = CC(C)(O)[C@H](N)C(=O)O; 4Pal = N[C@@H](Cc1ccncc1)C(=O)O; Cha = N[C@@H](CC1CCCCC1)C(=O)O; Carboxymethyl = O=C(O)C*; Orn = NCCC[C@H](N)C(=O)O; Aun = NCCCCCCCCCCC(=O)O; Dab = NCC[C@H](N)C(=O)O; AEEA = NCCOCCOCC(=O)O

T1 sequence (Q15116 25-288): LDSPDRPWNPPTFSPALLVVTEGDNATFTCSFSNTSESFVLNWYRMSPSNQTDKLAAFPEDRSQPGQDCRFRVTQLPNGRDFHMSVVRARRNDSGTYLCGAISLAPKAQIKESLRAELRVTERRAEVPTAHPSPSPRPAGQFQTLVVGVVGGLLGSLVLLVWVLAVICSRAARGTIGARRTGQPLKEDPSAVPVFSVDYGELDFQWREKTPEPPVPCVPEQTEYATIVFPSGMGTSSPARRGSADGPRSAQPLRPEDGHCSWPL

The assay addresses T1, PD-1/PD-L1 interaction (PE-labeled human PD-L1-Ig binding to Jurkat cell line over-expressing human PD-1) (Homo sapiens, UniProt Q15116).
T1 construct: expressed in transfected cells; host or cells: Jurkat
In words: Jurkat-PD-1 Cell Binding High-Content Screening Assay (CBA). The assay is classed as cell-based. The conditions noted are these: Jurkat cell line over-expressing human PD-1; PE-labeled PD-L1-Ig 20 nM final; read-out: Jurkat hPD1-PDL1 IC50. Summed up: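 Jurkat cells over-expressing human PD-1 (8×10^3 per well, DMEM/10% FCS) preincubated with compound 2 h at 37° C, then PE-labeled human PD-L1-Ig (20 nM final) added for 1 h. Cells fixed with paraformaldehyde, Hoechst-stained, and bound fluorescence quantified by high-content imaging.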
`Cc1cccc(C[C@@H]2NC(=O)[C@H](CC(=O)O)NC(=O)[C@H](Cc3ccc(OCC(=O)O)cc3)NC(=O)[C@H](Cc3ccncc3)NC(=O)CSC[C@@H](C(=O)N[C@@H](CCN)C(=O)NCCOCCOCC(=O)NCCOCCOCC(=O)NCCCCCCCCCCCCC(=O)O)NC(=O)[C@H](CCC(=O)O)NC(=O)[C@H](C(C)C)NC(=O)[C@H](CC3CCCCC3)NC(=O)[C@H](CCN)NC(=O)[C@@H](CC(C)C)NC(=O)[C@H](CCCN)NC(=O)[C@H](Cc3ccc(C(=O)O)cc3)NC(=O)[C@H](Cc3ccc(-c4ccccc4)cc3)NC(=O)[C@H](Cc3ccc(C(=O)O)cc3)NC2=O)c1` [Compound 3754] ({CH2CO}-[4Pal]Y(Carboxymethyl)D[Phe(3-Me)][Phe(4-COOH)][Bip][Phe(4-COOH)][Orn][dL][Dab][Cha]VEC[Dab][AEEA][AEEA]-{NH(CH2)12COOH}; thioether N-14): the IC50 is 250 nM.
On to `Cc1cccc(C[C@@H]2NC(=O)[C@H](CC(=O)O)NC(=O)[C@H](Cc3ccc(OCC(=O)O)cc3)NC(=O)[C@H](Cc3ccncc3)NC(=O)CSC[C@@H](C(=O)N[C@@H](CCN)C(=O)NCCOCCOCC(=O)NCCOCCOCC(=O)NCCCCCCCCCCC(=O)O)NC(=O)[C@H](CCCN)NC(=O)[C@H](C(C)(C)O)NC(=O)[C@H](CC3CCCCC3)NC(=O)[C@H](CCN)NC(=O)[C@@H](CC(C)C)NC(=O)[C@H](CCCN)NC(=O)[C@H](Cc3ccc(OCC(=O)O)cc3)NC(=O)[C@H](Cc3ccc(-c4ccccc4)cc3)NC(=O)[C@H](Cc3ccc(OCC(=O)O)cc3)NC2=O)c1` [Compound 3755] ({CH2CO}-[4Pal]Y(Carboxymethyl)D[Phe(3-Me)]Y(Carboxymethyl)[Bip]Y(Carboxymethyl)[Orn][dL][Dab][Cha][Val(3-OH)][Orn]C[Dab][AEEA][AEEA][Aun]-OH; thioether N-14), for which the IC50 was found to be 314 nM.
Under `Cc1cccc(C[C@@H]2NC(=O)[C@H](CC(=O)O)NC(=O)[C@H](Cc3ccc(OCC(=O)O)cc3)NC(=O)[C@H](CCN)NC(=O)CSC[C@@H](C(=O)N[C@@H](CCN)C(=O)NCCOCCOCC(=O)NCCOCCOCC(=O)NCCCCCCCCCCC(=O)O)NC(=O)[C@H](Cc3cnc[nH]3)NC(=O)[C@H](C(C)C)NC(=O)[C@H](CC3CCCCC3)NC(=O)[C@H](CCN)NC(=O)[C@@H](CC(C)C)NC(=O)[C@H](CCCN)NC(=O)[C@H](Cc3ccc(C(=O)O)cc3)NC(=O)[C@H](Cc3ccc(-c4ccccc4)cc3)NC(=O)[C@H](Cc3ccc(C(=O)O)cc3)NC2=O)c1` [Compound 3757] ({CH2CO}-[Dab]Y(Carboxymethyl)D[Phe(3-Me)][Phe(4-COOH)][Bip][Phe(4-COOH)][Orn][dL][Dab][Cha]VHC[Dab][AEEA][AEEA][Aun]-OH; thioether N-14) stands 2.6 nM.
Under `Cc1cccc(C[C@@H]2NC(=O)[C@H](CC(=O)O)NC(=O)[C@H](Cc3ccc(OCC(=O)O)cc3)NC(=O)[C@H](CCN)NC(=O)CSC[C@@H](C(=O)N[C@@H](CCN)C(=O)NCCOCCOCC(=O)NCCOCCOCC(=O)NCCCCCCCCCCCCC(=O)O)NC(=O)[C@H](CCC(=O)O)NC(=O)[C@H](C(C)(C)O)NC(=O)[C@H](CC3CCCCC3)NC(=O)[C@H](CCN)NC(=O)[C@@H](CC(C)C)NC(=O)[C@H](CCCN)NC(=O)[C@H](Cc3ccc(OCC(=O)O)cc3)NC(=O)[C@H](Cc3ccc(-c4ccccc4)cc3)NC(=O)[C@H](Cc3ccc(OCC(=O)O)cc3)NC2=O)c1` [Compound 3758] ({CH2CO}-[Dab]Y(Carboxymethyl)D[Phe(3-Me)]Y(Carboxymethyl)[Bip]Y(Carboxymethyl)[Orn][dL][Dab][Cha][Val(3-OH)]EC[Dab][AEEA][AEEA]-{NH(CH2)12COOH}; thioether N-14) stands 19 nM; under `Cc1cccc(C[C@@H]2NC(=O)[C@H](CC(=O)O)NC(=O)[C@H](Cc3ccc(OCC(=O)O)cc3)NC(=O)[C@H](CCN)NC(=O)CSC[C@@H](C(=O)N[C@@H](CCN)C(=O)NCCOCCOCC(=O)NCCOCCOCC(=O)NCCCCCCCCCCCCC(=O)O)NC(=O)[C@H](CCC(=O)O)NC(=O)[C@H](C(C)(C)O)NC(=O)[C@H](CC3CCCCC3)NC(=O)[C@H](CCN)NC(=O)[C@@H](CC(C)C)NC(=O)[C@H](CCCN)NC(=O)[C@H](Cc3ccc(C(=O)O)cc3)NC(=O)[C@H](Cc3ccc(-c4ccccc4)cc3)NC(=O)[C@H](Cc3ccc(C(=O)O)cc3)NC2=O)c1` [Compound 3759] ({CH2CO}-[Dab]Y(Carboxymethyl)D[Phe(3-Me)][Phe(4-COOH)][Bip][Phe(4-COOH)][Orn][dL][Dab][Cha][Val(3-OH)]EC[Dab][AEEA][AEEA]-{NH(CH2)12COOH}; thioether N-14), 39.2 nM.
For `Cc1cccc(C[C@@H]2NC(=O)[C@H](CC(=O)O)NC(=O)[C@H](Cc3ccc(OCC(=O)O)cc3)NC(=O)[C@H](CCN)NC(=O)CSC[C@@H](C(=O)N[C@@H](CCN)C(=O)NCCOCCOCC(=O)NCCOCCOCC(=O)NCCCCCCCCCCCCC(=O)O)NC(=O)[C@H](Cc3cnc[nH]3)NC(=O)[C@H](C(C)(C)O)NC(=O)[C@H](CC3CCCCC3)NC(=O)[C@H](CCN)NC(=O)[C@@H](CC(C)C)NC(=O)[C@H](CCCN)NC(=O)[C@H](Cc3ccc(OCC(=O)O)cc3)NC(=O)[C@H](Cc3ccc(-c4ccccc4)cc3)NC(=O)[C@H](Cc3ccc(OCC(=O)O)cc3)NC2=O)c1` [Compound 3760] ({CH2CO}-[Dab]Y(Carboxymethyl)D[Phe(3-Me)]Y(Carboxymethyl)[Bip]Y(Carboxymethyl)[Orn][dL][Dab][Cha][Val(3-OH)]HC[Dab][AEEA][AEEA]-{NH(CH2)12COOH}; thioether N-14) the value was 4.7 nM.
Turning to `Cc1cccc(C[C@@H]2NC(=O)[C@H](CC(=O)O)NC(=O)[C@H](Cc3ccc(OCC(=O)O)cc3)NC(=O)[C@H](CCN)NC(=O)CSC[C@@H](C(=O)N[C@@H](CCN)C(=O)NCCOCCOCC(=O)NCCOCCOCC(=O)NCCOCCOCC(=O)NCCCCCCCCCCCCCCC(=O)O)NC(=O)[C@H](Cc3c[nH]cn3)NC(=O)[C@H](C(C)(C)O)NC(=O)[C@H](CC3CCCCC3)NC(=O)[C@H](CCN)NC(=O)[C@@H](CC(C)C)NC(=O)[C@H](CCCN)NC(=O)[C@H](Cc3ccc(C(=O)O)cc3)NC(=O)[C@H](Cc3ccc(-c4ccccc4)cc3)NC(=O)[C@H](Cc3ccc(C(N)=O)cc3)NC2=O)c1` [Compound 3761] ({CH2CO}-[Dab]Y(Carboxymethyl)D[Phe(3-Me)][Phe(4-CONH2)][Bip][Phe(4-COOH)][Orn][dL][Dab][Cha][Val(3-OH)]HC[Dab][AEEA][AEEA][AEEA]-{NH(CH2)14COOH}; thioether N-14), the IC50 came out at 36.8 nM.
On to `Cc1cccc(C[C@@H]2NC(=O)[C@H](CC(=O)O)NC(=O)[C@H](Cc3ccc(OCC(=O)O)cc3)NC(=O)[C@H](CCN)NC(=O)CSC[C@@H](C(=O)N[C@@H](CCN)C(=O)NCCOCCOCC(=O)NCCOCCOCC(=O)NCCCCCCCCCCCCCCC(=O)O)NC(=O)[C@H](Cc3cnc[nH]3)NC(=O)[C@H](C(C)(C)O)NC(=O)[C@H](CC3CCCCC3)NC(=O)[C@H](CCN)NC(=O)[C@@H](CC(C)C)NC(=O)[C@H](CCCN)NC(=O)[C@H](Cc3ccc(C(=O)O)cc3)NC(=O)[C@H](Cc3ccc(-c4ccccc4)cc3)NC(=O)[C@H](Cc3ccc(C(=O)O)cc3)NC2=O)c1` [Compound 3762] ({CH2CO}-[Dab]Y(Carboxymethyl)D[Phe(3-Me)][Phe(4-COOH)][Bip][Phe(4-COOH)][Orn][dL][Dab][Cha][Val(3-OH)]HC[Dab][AEEA][AEEA]-{NH(CH2)14COOH}; thioether N-14), for which the IC50 was 27.5 nM.
For `Cc1cccc(C[C@@H]2NC(=O)[C@H](CC(=O)O)NC(=O)[C@H](Cc3ccc(C(=O)O)cc3)NC(=O)[C@H](Cc3ccncc3)NC(=O)CSC[C@@H](C(=O)N[C@@H](CCN)C(=O)NCCOCCOCC(=O)NCCOCCOCC(=O)NCCCCCCCCCCC(=O)O)NC(=O)[C@H](CCC(=O)O)NC(=O)[C@H](C(C)(C)O)NC(=O)[C@H](CC3CCCCC3)NC(=O)[C@H](CCN)NC(=O)[C@@H](CC(C)C)NC(=O)[C@H](CCCN)NC(=O)[C@H](Cc3ccc(C(=O)O)cc3)NC(=O)[C@H](Cc3ccc(-c4ccccc4)cc3)NC(=O)[C@H](Cc3ccc(C(=O)O)cc3)NC2=O)c1` [Compound 3764] ({CH2CO}-[4Pal][Phe(4-COOH)]D[Phe(3-Me)][Phe(4-COOH)][Bip][Phe(4-COOH)][Orn][dL][Dab][Cha][Val(3-OH)]EC[Dab][AEEA][AEEA][Aun]-OH; thioether N-14) the value was 238 nM; for `Cc1cccc(C[C@@H]2NC(=O)[C@H](CC(=O)O)NC(=O)[C@H](Cc3ccc(C(=O)O)cc3)NC(=O)[C@H](Cc3ccncc3)NC(=O)CSC[C@@H](C(=O)N[C@@H](CCN)C(=O)NCCOCCOCC(=O)NCCOCCOCC(=O)NCCCCCCCCCCC(=O)O)NC(=O)[C@H](CCC(=O)O)NC(=O)[C@H](C(C)C)NC(=O)[C@H](CC3CCCCC3)NC(=O)[C@H](CCN)NC(=O)[C@@H](CC(C)C)NC(=O)[C@H](CCCN)NC(=O)[C@H](Cc3ccc(C(=O)O)cc3)NC(=O)[C@H](Cc3ccc(-c4ccccc4)cc3)NC(=O)[C@H](Cc3ccc(C(=O)O)cc3)NC2=O)c1` [Compound 3765] ({CH2CO}-[4Pal][Phe(4-COOH)]D[Phe(3-Me)][Phe(4-COOH)][Bip][Phe(4-COOH)][Orn][dL][Dab][Cha]VEC[Dab][AEEA][AEEA][Aun]-OH; thioether N-14), 344 nM.
Under `Cc1cccc(C[C@@H]2NC(=O)[C@H](CC(=O)O)NC(=O)[C@H](Cc3ccc(OCC(=O)O)cc3)NC(=O)[C@H](Cc3ccncc3)NC(=O)CSC[C@@H](C(=O)N[C@@H](CCN)C(=O)NCCOCCOCC(=O)NCCOCCOCC(=O)NCCCCCCCCCCC(=O)O)NC(=O)[C@H](Cc3cnc[nH]3)NC(=O)[C@H](C(C)C)NC(=O)[C@H](CC3CCCCC3)NC(=O)[C@H](CCN)NC(=O)[C@@H](CC(C)C)NC(=O)[C@H](CCCN)NC(=O)[C@H](Cc3ccc(C(=O)O)cc3)NC(=O)[C@H](Cc3ccc(-c4ccccc4)cc3)NC(=O)[C@H](Cc3ccc(C(=O)O)cc3)NC2=O)c1` [Compound 3766] ({CH2CO}-[4Pal]Y(Carboxymethyl)D[Phe(3-Me)][Phe(4-COOH)][Bip][Phe(4-COOH)][Orn][dL][Dab][Cha]VHC[Dab][AEEA][AEEA][Aun]-OH; thioether N-14) stands 31.2 nM.
